Measurements taken from PubChem BioAssay (NCI).
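Dose response: 5 concentrations. Exposure: 48 h. Format: 96-well plates. Endpoint: linear interpolation; highest concentration if not reached. TGI marks complete inhibition of growth.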

Assays:
Test in all cases: growth of human tumour cells (NCI), 48 h
786-0 renal = test system: 786-0 renal
A498 renal = test system: A498 renal
A549 NSCLC = test system: A549 NSCLC
ACHN renal = test system: ACHN renal
BT-549 breast = test system: BT-549 breast
CAKI-1 renal = test system: CAKI-1 renal
CCRF-CEM leukemia = test system: CCRF-CEM leukemia
COLO 205 colon = test system: COLO 205 colon
DU-145 prostate = test system: DU-145 prostate
EKVX NSCLC = test system: EKVX NSCLC
HCT-116 colon = test system: HCT-116 colon
HL-60(TB) leukemia = test system: HL-60(TB) leukemia
HOP-62 NSCLC = test system: HOP-62 NSCLC
HOP-92 NSCLC = test system: HOP-92 NSCLC
HT29 colon = test system: HT29 colon
IGROV1 ovarian = test system: IGROV1 ovarian
K-562 leukemia = test system: K-562 leukemia
KM12 colon = test system: KM12 colon
LOX IMVI melanoma = test system: LOX IMVI melanoma
M14 melanoma = test system: M14 melanoma
MALME-3M melanoma = test system: MALME-3M melanoma
MCF7 breast = test system: MCF7 breast
MDA-MB-231 breast = test system: MDA-MB-231 breast
MDA-MB-435 = test system: MDA-MB-435
MDA-N = test system: MDA-N
MOLT-4 leukemia = test system: MOLT-4 leukemia
NCI-H226 lung = test system: NCI-H226 lung
NCI-H23 lung = test system: NCI-H23 lung
NCI-H522 lung = test system: NCI-H522 lung
NCI/ADR-RES ovarian = test system: NCI/ADR-RES ovarian
OVCAR-3 ovarian = test system: OVCAR-3 ovarian
OVCAR-5 ovarian = test system: OVCAR-5 ovarian
OVCAR-8 ovarian = test system: OVCAR-8 ovarian
PC-3 prostate = test system: PC-3 prostate
RPMI-8226 leukemia = test system: RPMI-8226 leukemia
RXF 393 renal = test system: RXF 393 renal
SF-295 CNS = test system: SF-295 CNS
SF-539 CNS = test system: SF-539 CNS
SK-MEL-2 melanoma = test system: SK-MEL-2 melanoma
SK-MEL-5 melanoma = test system: SK-MEL-5 melanoma
SK-OV-3 ovarian = test system: SK-OV-3 ovarian
SN12C renal = test system: SN12C renal
SNB-19 CNS = test system: SNB-19 CNS
SNB-75 CNS = test system: SNB-75 CNS
SR leukemia = test system: SR leukemia
SW-620 colon = test system: SW-620 colon
U251 CNS = test system: U251 CNS
UACC-257 melanoma = test system: UACC-257 melanoma
UO-31 renal = test system: UO-31 renal
HCC-2998 colon = test system: HCC-2998 colon
HCT-15 colon = test system: HCT-15 colon
HS 578T breast = test system: HS 578T breast
NCI-H460 lung = test system: NCI-H460 lung
OVCAR-4 ovarian = test system: OVCAR-4 ovarian
SF-268 CNS = test system: SF-268 CNS
SK-MEL-28 melanoma = test system: SK-MEL-28 melanoma
T-47D breast = test system: T-47D breast
TK-10 renal = test system: TK-10 renal
UACC-62 melanoma = test system: UACC-62 melanoma

COc1ccc(C2=Nc3c(nc(SC)[nH]c3=O)NC(c3ccccc3)C2)cc1 (stereo not given)
TGI (786-0 renal): > 100 µM
TGI (A498 renal): > 100 µM
TGI (A549 NSCLC): 66.5 µM
TGI (ACHN renal): 56.7 µM
TGI (BT-549 breast): 66.1 µM
TGI (CAKI-1 renal): 31 µM
TGI (CCRF-CEM leukemia): 98.6 µM
TGI (COLO 205 colon): 34.8 µM
TGI (DU-145 prostate): 82.7 µM
TGI (EKVX NSCLC): 67.8 µM
TGI (HCT-116 colon): > 100 µM
TGI (HL-60(TB) leukemia): 42.5 µM
TGI (HOP-62 NSCLC): > 100 µM
TGI (HOP-92 NSCLC): > 100 µM
TGI (HT29 colon): 49.8 µM
TGI (IGROV1 ovarian): 55.6 µM
TGI (K-562 leukemia): 66 µM
TGI (KM12 colon): 30.2 µM
TGI (LOX IMVI melanoma): > 100 µM
TGI (M14 melanoma): 66 µM
TGI (MALME-3M melanoma): > 100 µM
TGI (MCF7 breast): 41.8 µM
TGI (MDA-MB-231 breast): 30 µM
TGI (MDA-MB-435): > 100 µM
TGI (MDA-N): 35.4 µM
TGI (MOLT-4 leukemia): 57.1 µM
TGI (NCI-H226 lung): 65.2 µM
TGI (NCI-H23 lung): 45.6 µM
TGI (NCI-H522 lung): 35.7 µM
TGI (NCI/ADR-RES ovarian): 77.3 µM
TGI (OVCAR-3 ovarian): > 100 µM
TGI (OVCAR-5 ovarian): > 100 µM
TGI (OVCAR-8 ovarian): 40.7 µM
TGI (PC-3 prostate): > 100 µM
TGI (RPMI-8226 leukemia): 62 µM
TGI (RXF 393 renal): 39 µM
TGI (SF-295 CNS): 60.4 µM
TGI (SF-539 CNS): 37.3 µM
TGI (SK-MEL-2 melanoma): 94.4 µM
TGI (SK-MEL-5 melanoma): 30.1 µM
TGI (SK-OV-3 ovarian): 51.9 µM
TGI (SN12C renal): 47.2 µM
TGI (SNB-19 CNS): 65.4 µM
TGI (SNB-75 CNS): 48.8 µM
TGI (SR leukemia): > 100 µM
TGI (SW-620 colon): > 100 µM
TGI (U251 CNS): 36.4 µM
TGI (UACC-257 melanoma): 57.4 µM
TGI (UO-31 renal): 56.3 µM

CC1/C(=N/O)CC(c2ccccc2)N(N=O)C1c1ccccc1 (stereo not given)
TGI (786-0 renal): > 100 µM
TGI (A549 NSCLC): > 100 µM
TGI (ACHN renal): > 100 µM
TGI (BT-549 breast): > 100 µM
TGI (CAKI-1 renal): > 100 µM
TGI (CCRF-CEM leukemia): > 100 µM
TGI (COLO 205 colon): > 100 µM
TGI (DU-145 prostate): > 100 µM
TGI (EKVX NSCLC): > 100 µM
TGI (HCC-2998 colon): > 100 µM
TGI (HCT-116 colon): > 100 µM
TGI (HCT-15 colon): > 100 µM
TGI (HL-60(TB) leukemia): > 100 µM
TGI (HOP-62 NSCLC): > 100 µM
TGI (HOP-92 NSCLC): > 100 µM
TGI (HS 578T breast): > 100 µM
TGI (HT29 colon): > 100 µM
TGI (IGROV1 ovarian): > 100 µM
TGI (K-562 leukemia): > 100 µM
TGI (KM12 colon): > 100 µM
TGI (LOX IMVI melanoma): > 100 µM
TGI (M14 melanoma): > 100 µM
TGI (MALME-3M melanoma): > 100 µM
TGI (MCF7 breast): > 100 µM
TGI (MDA-MB-231 breast): > 100 µM
TGI (MDA-MB-435): > 100 µM
TGI (MDA-N): > 100 µM
TGI (MOLT-4 leukemia): > 100 µM
TGI (NCI-H226 lung): > 100 µM
TGI (NCI-H23 lung): > 100 µM
TGI (NCI-H460 lung): > 100 µM
TGI (NCI-H522 lung): > 100 µM
TGI (NCI/ADR-RES ovarian): > 100 µM
TGI (OVCAR-3 ovarian): > 100 µM
TGI (OVCAR-4 ovarian): > 100 µM
TGI (OVCAR-8 ovarian): > 100 µM
TGI (PC-3 prostate): > 100 µM
TGI (RPMI-8226 leukemia): > 100 µM
TGI (RXF 393 renal): > 100 µM
TGI (SF-268 CNS): > 100 µM
TGI (SF-295 CNS): > 100 µM
TGI (SF-539 CNS): > 100 µM
TGI (SK-MEL-2 melanoma): > 100 µM
TGI (SK-MEL-28 melanoma): > 100 µM
TGI (SK-MEL-5 melanoma): > 100 µM
TGI (SK-OV-3 ovarian): > 100 µM
TGI (SN12C renal): > 100 µM
TGI (SNB-19 CNS): > 100 µM
TGI (SNB-75 CNS): > 100 µM
TGI (SW-620 colon): > 100 µM
TGI (T-47D breast): > 100 µM
TGI (TK-10 renal): > 100 µM
TGI (U251 CNS): > 100 µM
TGI (UACC-257 melanoma): > 100 µM
TGI (UACC-62 melanoma): > 100 µM
TGI (UO-31 renal): > 100 µM

Cc1ccc(C(=O)N/N=C(\N=Nc2ccccc2C(=O)O)c2ccc(N(C)C)cc2)cc1
TGI (786-0 renal): > 100 µM
TGI (A549 NSCLC): > 100 µM
TGI (BT-549 breast): > 100 µM
TGI (CAKI-1 renal): > 100 µM
TGI (CCRF-CEM leukemia): > 100 µM
TGI (COLO 205 colon): > 100 µM
TGI (EKVX NSCLC): > 100 µM
TGI (HCC-2998 colon): > 100 µM
TGI (HCT-116 colon): > 100 µM
TGI (HCT-15 colon): > 100 µM
TGI (HL-60(TB) leukemia): > 100 µM
TGI (HOP-92 NSCLC): > 100 µM
TGI (HS 578T breast): > 100 µM
TGI (HT29 colon): > 100 µM
TGI (IGROV1 ovarian): > 100 µM
TGI (K-562 leukemia): > 100 µM
TGI (KM12 colon): > 100 µM
TGI (LOX IMVI melanoma): > 100 µM
TGI (M14 melanoma): > 100 µM
TGI (MCF7 breast): > 100 µM
TGI (MDA-MB-231 breast): > 100 µM
TGI (MDA-MB-435): > 100 µM
TGI (MDA-N): 57.7 µM
TGI (MOLT-4 leukemia): > 100 µM
TGI (NCI-H226 lung): > 100 µM
TGI (NCI-H23 lung): > 100 µM
TGI (NCI-H460 lung): > 100 µM
TGI (NCI-H522 lung): > 100 µM
TGI (NCI/ADR-RES ovarian): > 100 µM
TGI (OVCAR-3 ovarian): 99.3 µM
TGI (OVCAR-4 ovarian): > 100 µM
TGI (OVCAR-5 ovarian): > 100 µM
TGI (OVCAR-8 ovarian): > 100 µM
TGI (PC-3 prostate): > 100 µM
TGI (RPMI-8226 leukemia): > 100 µM
TGI (SF-268 CNS): > 100 µM
TGI (SF-295 CNS): > 100 µM
TGI (SF-539 CNS): > 100 µM
TGI (SK-MEL-2 melanoma): > 100 µM
TGI (SK-MEL-28 melanoma): > 100 µM
TGI (SK-MEL-5 melanoma): > 100 µM
TGI (SN12C renal): > 100 µM
TGI (SNB-19 CNS): > 100 µM
TGI (SW-620 colon): > 100 µM
TGI (TK-10 renal): > 100 µM
TGI (U251 CNS): > 100 µM
TGI (UACC-257 melanoma): > 100 µM
TGI (UO-31 renal): > 100 µM

O=C(NNc1nc(-c2ccccc2)cs1)Nc1ccccc1
TGI (786-0 renal): 85 µM
TGI (A549 NSCLC): 48 µM
TGI (ACHN renal): > 100 µM
TGI (BT-549 breast): 60.9 µM
TGI (CAKI-1 renal): > 100 µM
TGI (CCRF-CEM leukemia): > 100 µM
TGI (COLO 205 colon): 56.4 µM
TGI (DU-145 prostate): 89.1 µM
TGI (EKVX NSCLC): > 100 µM
TGI (HCC-2998 colon): 70.6 µM
TGI (HCT-116 colon): 58.5 µM
TGI (HCT-15 colon): 74.4 µM
TGI (HOP-62 NSCLC): 56.8 µM
TGI (HS 578T breast): 74.3 µM
TGI (HT29 colon): 76.2 µM
TGI (IGROV1 ovarian): > 100 µM
TGI (K-562 leukemia): > 100 µM
TGI (KM12 colon): > 100 µM
TGI (M14 melanoma): > 100 µM
TGI (MALME-3M melanoma): > 100 µM
TGI (MCF7 breast): 62.8 µM
TGI (MDA-MB-231 breast): 54.4 µM
TGI (MDA-MB-435): 65.8 µM
TGI (MDA-N): 65.8 µM
TGI (MOLT-4 leukemia): > 100 µM
TGI (NCI-H226 lung): 46.5 µM
TGI (NCI-H23 lung): 41.2 µM
TGI (NCI-H460 lung): 50.6 µM
TGI (NCI/ADR-RES ovarian): 45.8 µM
TGI (OVCAR-3 ovarian): 50.2 µM
TGI (OVCAR-4 ovarian): 88.5 µM
TGI (OVCAR-5 ovarian): > 100 µM
TGI (OVCAR-8 ovarian): 46.8 µM
TGI (PC-3 prostate): 39.1 µM
TGI (RPMI-8226 leukemia): 44.2 µM
TGI (RXF 393 renal): 36.8 µM
TGI (SF-268 CNS): 80.9 µM
TGI (SF-295 CNS): 83.6 µM
TGI (SK-MEL-2 melanoma): 44.6 µM
TGI (SK-MEL-28 melanoma): 85.6 µM
TGI (SK-MEL-5 melanoma): 38.2 µM
TGI (SK-OV-3 ovarian): 52.2 µM
TGI (SN12C renal): 97.8 µM
TGI (SNB-19 CNS): > 100 µM
TGI (SNB-75 CNS): 69.3 µM
TGI (SW-620 colon): > 100 µM
TGI (T-47D breast): 66.8 µM
TGI (TK-10 renal): 48.6 µM
TGI (U251 CNS): 58.1 µM
TGI (UACC-257 melanoma): 59.3 µM
TGI (UACC-62 melanoma): 40.2 µM
TGI (UO-31 renal): 75.2 µM
